Patent US6172079A, “5-substituted-3-oxadiazolyl-1,6-naphthyridin-2(1H)-one derivatives” (Dainippon Pharmaceutical Co., Ltd., priority 1997, dated 2001)

Columns and labels:
[1] = test system: GABAA receptor complex (TBPS binding); assay: TBPS Binding Assay; parameters: species or system Wistar rats; conditions: [35S]TBPS 0.4 nM, GABA 1 μM, rat cerebral cortex membrane, +% inverse agonistic, 0% antagonistic
Protocol: The TBPS (t-butylbicyclophosphonothionate) binding assay and the preparation of the membrane specimen were done in a similar manner to the method of Biggio, G. et al. [cf. European Journal of Pharmacology, vol.
That is, to the cerebral cortex was added a 50-fold volume of an ice-cooled buffer (a 50 mM Tris-citrate buffer containing 100 mM sodium chloride, pH 7.4) and the mixture was homogenized at 0-4° C. and then centrifuged at 20,000 g for 20 minutes. The pellets thus obtained were once subjected to homogenization in a buffer and centrifugation by the same procedure as above and then kept in freezed state at -80° C. for more than 20 hours. On the test day, the freezed pellets were thawed and then subjected twice to the homogenization-centrifugation procedure as described above.
Subsequently, the filter was moved into a liquid scintillation vial and thereto was added a liquid scintillation cocktail (ACS-II, manufactured by Amersham, USA, 10 ml) and allowed to stand for a fixed period of time. […] Separately, the same procedures were repeated in the presence of Picrotoxin to determine the non-specific binding amount. The non-specific binding amount was deducted from the total binding amount to give the specific binding amount. The binding activity of the test compound was calculated by a variation rate, i.e., a rate of the specific binding amount of the test compound to the specific binding amount in control (using a solvent).

[2] = target: benzodiazepine receptor; assay: Benzodiazepine Receptor Binding Assay; conditions: read-out: BZP-receptor Binding IC50; [3H]-diazepam 1.5 nM; rat brain crude synaptosome membrane; 0° C., 20 min

| SMILES | TBPS binding Variation Rate [1] [%] | IC50 [2] [nM] |
| --- | --- | --- |
| Cc1noc(-c2cc3c(-c4ccc(F)cc4)nccc3[nH]c2=O)n1 [Example 178] | 25 | 2.31 |
| CCCc1nc(-c2cc3c(C(C)C)nccc3[nH]c2=O)no1 [Example 36] | 15 |  |
| Cc1noc(-c2cc3c(-c4cccc(Cl)c4)nccc3[nH]c2=O)n1 [Example 180] | 13 | 1.22 |
| CC(C)c1nccc2[nH]c(=O)c(-c3nc(C4CC4)no3)cc12 [Example 233] | 31 | 1.58 |
| CC(C)c1noc(-c2cc3c(C4CC4)nccc3[nH]c2=O)n1 [Example 224] | -12 | 3.57 |
| Cc1nc(-c2cc3c(CC(C)C)nccc3[nH]c2=O)no1 [Example 3] | 12 | 3.58 |
| CCc1nc(-c2cc3c(CC)nccc3[nH]c2=O)no1 [Example 14] | 38 | 9.45 |
| CCc1nc(-c2cc3c(-c4cccnc4)nccc3[nH]c2=O)no1 [Example 106] | 20 | 1.96 |
| Cc1nc(-c2cc3c(-c4ccccc4F)nccc3[nH]c2=O)no1 [Example 87] | 32 | 2.35 |
| CCc1nc(-c2cc3c(C(C)C)nccc3[nH]c2=O)no1 [Example 16] | 38 | 3.69 |
| Cc1nc(-c2cc3c(-c4cccc(Cl)c4)nccc3[nH]c2=O)no1 [Example 7] | 12 | 2.39 |
| CCc1nccc2[nH]c(=O)c(-c3noc(C4CC4)n3)cc12 [Example 48] | 18 | 1.49 |
| O=c1[nH]c2ccnc(-c3cccc(Cl)c3)c2cc1-c1nc(C2CC2)no1 [Example 240] | -13 | 2.51 |
| CCc1nc(-c2cc3c(C4CC4)nccc3[nH]c2=O)no1 [Example 17] | 25 | 0.69 |
| O=c1[nH]c2ccnc(-c3ccccc3)c2cc1-c1noc(C2CC2)n1 [Example 52] | -11 | 0.74 |
| CCc1noc(-c2cc3c(-c4ccccc4Cl)nccc3[nH]c2=O)n1 [Example 202] | 22 | 2.09 |
| Cc1ccc(-c2nccc3[nH]c(=O)c(-c4noc(C5CC5)n4)cc23)cc1 [Example 58] | -15 | 1.52 |
| CCCc1nc(-c2cc3c(-c4ccccc4)nccc3[nH]c2=O)no1 [Example 38] | 25 | 1.31 |
| Cc1nc(-c2cc3c(-c4ccco4)nccc3[nH]c2=O)no1 [Example 91] | 38 | 0.61 |

| SMILES | TBPS binding Variation Rate [1] [%] | IC50 [2] [nM] |
| --- | --- | --- |
| CCc1noc(-c2cc3c(CC(C)C)nccc3[nH]c2=O)n1 [Example 196] | -9 | 4.6 |
| Cc1noc(-c2cc3c(-c4ccco4)nccc3[nH]c2=O)n1 [Example 188] | 34 | 1.2 |
| CCc1nc(-c2cc3c(CC(C)C)nccc3[nH]c2=O)no1 [Example 20] | -13 | 2.77 |
| CCc1noc(-c2cc3c(-c4ccco4)nccc3[nH]c2=O)n1 [Example 211] | 24 | 0.82 |
| Cc1noc(-c2cc3c(-c4cccs4)nccc3[nH]c2=O)n1 [Example 189] | 29 | 0.84 |
| CC(C)c1noc(-c2cc3c(-c4ccco4)nccc3[nH]c2=O)n1 [Example 229] | 10 | 1.12 |
| CCc1noc(-c2cc3c(-c4ccsc4)nccc3[nH]c2=O)n1 [Example 212] | 27 | 1.26 |
| CCc1noc(-c2cc3c(-c4cccc(Cl)c4)nccc3[nH]c2=O)n1 [Example 203] | 17 | 1.97 |
| CCc1nc(-c2cc3c(C)nccc3[nH]c2=O)no1 [Example 13] | 24 |  |
| CCc1nc(-c2cc3c(-c4cccc(Cl)c4)nccc3[nH]c2=O)no1 [Example 29] |  | 5.28 |
| CCCc1noc(-c2cc3c(-c4cccc(F)c4)nccc3[nH]c2=O)n1 [Example 218] |  | 2.58 |
| CCCc1noc(-c2cc3c(-c4ccc(F)cc4)nccc3[nH]c2=O)n1 [Example 219] |  | 2.03 |
| Cc1noc(-c2cc3c(-c4ccc(Cl)cc4)nccc3[nH]c2=O)n1 [Example 181] | 13 |  |
| CCc1noc(-c2cc3c(-c4ccccc4F)nccc3[nH]c2=O)n1 [Example 199] |  | 1.55 |
| CCc1nc(-c2cc3c(-c4ccc(F)cc4)nccc3[nH]c2=O)no1 [Example 28] |  | 1.25 |
| O=c1[nH]c2ccnc(-c3ccc(Cl)cc3)c2cc1-c1noc(C2CC2)n1 [Example 56] |  | 2.71 |
| O=c1[nH]c2ccnc(C3CC3)c2cc1-c1noc(C2CC2)n1 [Example 51] |  | 0.79 |
| CC(C)c1nc(-c2cc3c(-c4ccccc4F)nccc3[nH]c2=O)no1 [Example 112] |  | 2.68 |

Continued, values first:

| TBPS binding Variation Rate [1] [%] | IC50 [2] [nM] | SMILES |
| --- | --- | --- |
| 32 | 0.75 | Cc1nc(-c2cc3c(-c4cccs4)nccc3[nH]c2=O)no1 [Example 92] |
| 28 | 1.21 | Cc1noc(-c2cc3c(-c4ccccc4)nccc3[nH]c2=O)n1 [Example 175] |
| -23 | 1.31 | CCc1nc(-c2cc3c(-c4cccc5ccccc45)nccc3[nH]c2=O)no1 [Example 100] |
| 44 | 4.1 | CCc1noc(-c2cc3c(C(C)C)nccc3[nH]c2=O)n1 [Example 193] |
| 53 |  | Cc1nc(-c2cc3c(C)nccc3[nH]c2=O)no1 [Example 2] |
| 29 |  | Cc1noc(-c2cc3c(-c4cccc(F)c4)nccc3[nH]c2=O)n1 [Example 177] |
| 19 |  | COc1ccccc1-c1nccc2[nH]c(=O)c(-c3nc(C)no3)cc12 [Example 185] |
| 13 | 1.09 | CCc1nc(-c2cc3c(-c4ccccc4F)nccc3[nH]c2=O)no1 [Example 95] |
| 12 | 1.12 | O=c1[nH]c2ccnc(-c3ccsc3)c2cc1-c1noc(C2CC2)n1 [Example 123] |
| 13 |  | Cc1nc(-c2cc3c(-c4ccc(Cl)cc4)nccc3[nH]c2=O)no1 [Example 8] |
| 16 | 2.82 | CCc1nc(-c2cc3c(-c4ccccc4Cl)nccc3[nH]c2=O)no1 [Example 96] |
| 32 | 1.06 | CCc1noc(-c2cc3c(C4CC4)nccc3[nH]c2=O)n1 [Example 194] |
| 28 |  | CC(C)c1nc(-c2cc3c(C(C)C)nccc3[nH]c2=O)no1 [Example 43] |
|  | 1.11 | CCCc1nccc2[nH]c(=O)c(-c3noc(C4CC4)n3)cc12 [Example 49] |
|  | 2.06 | CCCc1nc(-c2cc3c(-c4ccsc4)nccc3[nH]c2=O)no1 [Example 111] |
|  | 0.78 | O=c1[nH]c2ccnc(-c3ccco3)c2cc1-c1noc(C2CC2)n1 [Example 121] |
|  | 0.91 | O=c1[nH]c2ccnc(-c3ccccc3)c2cc1-c1nc(C2CC2)no1 [Example 235] |
|  | 1.91 | CCc1nnc(-c2cc3c(-c4ccccc4)nccc3[nH]c2=O)o1 [Example 311] |
